# Legend:
# platelets in whole blood [1] = assay: T2MR platelet-induced clot contraction with platelet agonist, uncoated polypropylene tube; format: cell-based, human
# Description: Platelet-induced clot contraction was used for measuring platelet activity and inhibition using a formulation of reptilase (RF), factor XIIIa (FXIIIa), and platelet agonist such as arachidonic acid (AA) or adenosine diphosphate (ADP). The RF and FXIIIa induce the formation of a fibrin mesh rapidly without activating platelets. This occurs rapidly as compared to clot contraction. In developing a platelet activity assay for the agonist arachidonic acid (AA) we were able to see reproducible […] signatures that titrated with the concentration of AA as expected ([…] curves acquired from whole blood with 0.5 mM, 1.0 mM, and 1.5 mM AA). In a typical clot contraction signal there is an upper […] signal that increases rapidly between 5 and 10 minutes and the appearance of a lower […] signal around the same point in time. The upper signal corresponds to water excreted from the clot and the lower signal corresponds to water trapped in the contracted clot. The lowest level has the slowest kinetics. […] In developing a platelet activity assay for the agonist ADP we encountered a problem with reproducibility. For example, in triplicate measures (3 samples obtained in parallel from freshly drawn blood) the clot contraction signal might appear for only one sample and/or the triplicate measures might vary in the signal intensity of the clot contraction signal. Reproducible results were obtained from AA, but not ADP. This is believed to result from the fact that AA is a stronger platelet activator than ADP. This conclusion is supported by the following observations. […] Second, aging the blood could lead to stronger clot contraction signals, presumably due to basal thrombin activation that led to more platelet induced clot contraction. Third, adding low levels of thrombin could lead to more platelet induced clot contraction. Therefore, there is a difference in the strength of platelet activation for AA and ADP.
# [2] = test system: platelets in blood samples; assay: T2MR ADP activation titration in Triton X-100 coated polypropylene tubes; format: cell-based, human; details: Triton X-100 coated tube
# Protocol: Platelet-induced clot contraction was used for measuring platelet activity and inhibition using a formulation of reptilase (RF), factor XIIIa (FXIIIa), and platelet agonist such as arachidonic acid (AA) or adenosine diphosphate (ADP). The RF and FXIIIa induce the formation of a fibrin mesh rapidly without activating platelets. This occurs rapidly as compared to clot contraction. Briefly, blood samples were activated with varying levels of ADP in 0.2 mL polypropylene tubes coated with Triton X-100. […] Additionally, levels below […] are now able to show a clot contraction signal when the polypropylene surface is coated with Triton X-100. Furthermore, this signal is much stronger than that previously observed for ADP activated samples in polypropylene tubes without coating.
# [3] = T2MR fibrinogen assay with thrombin; set-up: species or system human; details: 45 μM MnSO4 in buffer diluent
# Protocol: T2MR measures the formation of fibrin directly in the whole blood or plasma in the presence of thrombin. The solution of thrombin (STAGO, 5 U/mL) is added to the diluted solution of plasma (or blood) and the change in T2 signal is monitored. The sample begins to clot immediately upon addition of thrombin, resulting in a rapid decrease in T2 signal. In order to achieve better sample relaxation rate and reduce noise in the measured T2 signal the paramagnetic material (MnSO4) is added to the buffer diluent (STAGO, Owren-Koller buffer), with a final concentration of the MnSO4 in diluent of 45 μM. […] The buffer diluent containing paramagnetic material is used to prepare thrombin 5 U/mL stock by diluting 80 U/mL stock and to prepare standard dilutions for the calibration curve.
# [4] = PT clotting time, T2MR and Stago; set-up: species or system human; details: spiked 10 ng/mL-1000 ng/mL
# Protocol: Clotting times were measured by […] by first establishing a time zero T2 value (i.e., by taking the first point or some sort of average or linear fit to the first 5-10 data points) of the T2 time curve, and second identifying the time point (i.e., the clotting time or PT time) in the T2 time curve when the T2 value had changed by a predetermined amount (e.g. 5% or 10%) indicative of clotting in the sample. From the observed PT clotting time the INR was calculated using the methods described in Jan et al., Clin. Chem. 35:840 (1989). […] 18 normal samples and 24 abnormal samples were tested against a reference range established by 20 normal samples. Abnormal samples with prolonged PT times were obtained by spiking increasing levels of the anti-Xa inhibitor Rivaroxiban (10 ng/mL-1000 ng/mL). Correlation with TEG clotting time was obtained across >40 normal patient samples with non-optimized R2 correlation of >0.8. (see FIG. 14B). PT time correlations with Stago for plasma (see FIG. 14D) and with Hemochron for whole blood (see FIG. 14C) were also found.
# platelet activity = assay: T2MR platelet inhibition, heparin blood activated by AA+RF; format: cell-based, human; details: 600 μM aspirin ex vivo
# Protocol: In this experiment platelet inhibition was monitored by the addition of 600 μM aspirin ex vivo to heparin blood prior to activation by AA+RF (samples were tested with and without aspirin). […] These studies confirmed that the clot signature was dependent on platelet activity.
# platelets in whole blood [5] = details: 5-20 μM epinephrine
# Protocol: A titration of epinephrine ranging from 5-20 μM was added to the activation cocktail (comprised of reptilase, factor XIIIa, calcium, and platelet activator). 4 μL of the activation cocktail was added to 36 μL of whole blood in a coated tube. The tube containing the reaction was placed in a T2MR reader. T2MR relaxation curve data was processed with an Inverse Laplace transformation algorithm.
# platelets = assay: Tube-dried collagen as platelet activator, T2MR; format: cell-based; details: 2 micrograms dried in microtube; whole blood and RBC-depleted plasma
# Protocol: Collagen is a potent activator of platelets, and recognition of exposed collagen from the cellular matrix is one of the in vivo signals for platelet activation. […] To prepare the tube, 2 micrograms (2 μL of a 1 mg/ml solution) was deposited in the bottom of a microtube and the tube placed at 37° C. for 2-5 hours. A tube prepared in this way can be kept at room temperature or at 37° C. for several weeks. To measure a T2MR signature 34 μL of citrated whole blood (or RBC-depleted blood) were added to the tube at 37 degrees; after 1 minute 2 μL of 0.2M CaCl2 was added and the sample placed in the magnet for relaxation measurements and analysis.
compound,measurement,setting,value
"CCCCC/C=C\C/C=C\C/C=C\C/C=C\CCCC(=O)O [AA, arachidonic acid]",concentration that typically causes clot retraction,platelets in whole blood [1],0.5 to 1 mM
same,platelet-induced clot contraction,platelets in whole blood [1]; typical level of AA,strong platelet-induced clot contraction
"Nc1ncnc2c1ncn2[C@@H]1O[C@H](COP(=O)(O)OP(=O)(O)O)[C@@H](O)[C@H]1O [ADP, adenosine diphosphate]",clot retraction after gel phase,platelets in whole blood [1]; ADP activation,retraction does not occur
same,platelet-induced clot contraction,platelets in whole blood [1]; ten-fold excess (over standard levels) of ADP,weak and irreproducible platelet-induced clot contraction
same,clot formation T2MR signal,[2]; 2.5 mM ADP,partial clot formation is observed
same,clot formation T2MR signal,[2]; 0.5 and 1 mM ADP,no clot formation signal is observed
same,clot formation T2MR signal,"[2]; 5, 10, 20 mM ADP",complete clot formation is observed
O=S(=O)([O-])[O-].[Mn+2] [MnSO4],effect on the clotting process,[3],no significant effect
O=C(NC[C@H]1CN(c2ccc(N3CCOCC3=O)cc2)C(=O)O1)c1ccc(Cl)s1 [Rivaroxiban],PT times,[4],prolonged
"CC(=O)Oc1ccccc1C(=O)O [aspirin, acetylsalicylic acid]",clot-associated T2 signal,platelet activity,dramatically diminished or absent
CNC[C@H](O)c1ccc(O)c(O)c1 [epinephrine],sample response (clot contraction),platelets in whole blood [5],responsive
same,timing of clot contraction,platelets in whole blood [5],dose dependent
collagen,T2MR clot peak,platelets,effectively generate a T2MR clot peak
